Assay [1] relates to TSST-1 production by Staphylococcus aureus MN8. The class given is cell-based. The following applies: 24 hours at 35° C.
Another assay has as its system S. aureus MN8. The class given is cell-based, Staphylococcus aureus. Particulars: 24 hours at 35° C.

Take Laureth-4: in assay [1], the “TSST-1” value turned out to be 531.8 ng/mL. In addition, the “Final [S. aureus]” value in the assay on S. aureus MN8 is recorded as 4.57 × 10^9 CFU/ml.

On to PPG-5 Laureth-5, for which the “TSST-1” value in assay [1] is on record as 609.2 ng/mL. Moreover, in the assay on S. aureus MN8, the “Final [S. aureus]” value is reported as 3.82 × 10^9 CFU/ml.

Regarding Steareth-2, the “TSST-1” value in assay [1] is recorded as 680.7 ng/mL. In addition, in the assay with S. aureus MN8, the “Final [S. aureus]” value is reported as 5.76 × 10^9 CFU/ml.

Values taken from patent US6676957B1 (priority 2000, dated 2004).
